Test results from patent US9102648B1, “Bioavailable diacylhydrazine ligands for modulating the expression of exogenous genes via an ecdysone receptor complex” (Intrexon Corporation, priority 2003, dated 2015).

Legend:
[1] = Partition coefficient Log (D), 1-octanol / pH 7.4 buffer; type: physicochemical; conditions: water-saturated 1-octanol / pH 7.4 buffer, room temperature
Description: The partition coefficient, Log (D), between water-saturated 1-octanol and pH 7.4 buffer was determined for the test compounds. The buffer was prepared as described in section 2. A 12 μl aliquot of a 10 mM stock solution in DMSO was introduced to a vial containing 0.60 mL of octanol and 0.60 mL of buffer at room temperature. Testosterone was also added to a final concentration of 100 μM as an internal control. The solution was vortexed for 60 minutes and centrifuged at 10,000 rpm for 10 minutes. The organic and aqueous layers were removed. Serial dilutions of the organic layer were made with 50% methanol except for the initial dilution, which was made in 100% methanol. Serial dilutions of the aqueous layer were made in the pH 7.4 buffer. The diluted samples were then assayed by LC/MS for the compound as well as for testosterone. The Log of the ratio of peak area responses was calculated to obtain the Log (D). Typical Log D values for testosterone are from 3.0-3.3.

[2] = Aqueous equilibrium solubility in pH 7.4 buffer; conditions: pH 7.4 aqueous buffer, room temperature, equilibrium
[3] = molecular target: T1, Bombyx mori EcR (VP16 fusion, CVBE switch construct) (Bombyx mori, UniProt P49881); assay: Z3 Assay (HEK-293 cells with CVBE and 6XEcRE LacZ, β-galactosidase reporter); conditions: for Fold Induction, Z3 Assay, 3.3 uM: 3.3 uM ligand, ligand treated / DMSO treated cells; for Fold Induction, Z3 Assay, 3.3 uM / EC50: average of two wells; for Z3 assay Rel Max FI: maximum fold induction at any concentration relative to that of GS-E ligand; for Z3 assay Rel Max FI / EC50: HEK-293 Z3 cells; for EC50: read-out: Z3 assay EC50, β-galactosidase reporter
T1 sequence (P49881 86-606): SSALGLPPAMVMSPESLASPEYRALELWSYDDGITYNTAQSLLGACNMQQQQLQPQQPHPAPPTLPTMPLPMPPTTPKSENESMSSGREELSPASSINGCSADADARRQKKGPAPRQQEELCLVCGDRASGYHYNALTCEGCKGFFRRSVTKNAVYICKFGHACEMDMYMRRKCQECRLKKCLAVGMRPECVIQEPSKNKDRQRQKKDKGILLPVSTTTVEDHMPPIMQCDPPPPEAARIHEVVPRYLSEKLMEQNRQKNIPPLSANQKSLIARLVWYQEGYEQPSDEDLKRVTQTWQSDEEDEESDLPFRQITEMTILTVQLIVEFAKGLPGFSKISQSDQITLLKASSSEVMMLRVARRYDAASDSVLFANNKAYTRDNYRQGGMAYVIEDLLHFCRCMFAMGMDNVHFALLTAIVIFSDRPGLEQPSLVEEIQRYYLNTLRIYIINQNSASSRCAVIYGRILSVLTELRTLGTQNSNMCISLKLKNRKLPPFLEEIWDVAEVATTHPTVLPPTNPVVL
T1 sequence (P19793 1-462 partner): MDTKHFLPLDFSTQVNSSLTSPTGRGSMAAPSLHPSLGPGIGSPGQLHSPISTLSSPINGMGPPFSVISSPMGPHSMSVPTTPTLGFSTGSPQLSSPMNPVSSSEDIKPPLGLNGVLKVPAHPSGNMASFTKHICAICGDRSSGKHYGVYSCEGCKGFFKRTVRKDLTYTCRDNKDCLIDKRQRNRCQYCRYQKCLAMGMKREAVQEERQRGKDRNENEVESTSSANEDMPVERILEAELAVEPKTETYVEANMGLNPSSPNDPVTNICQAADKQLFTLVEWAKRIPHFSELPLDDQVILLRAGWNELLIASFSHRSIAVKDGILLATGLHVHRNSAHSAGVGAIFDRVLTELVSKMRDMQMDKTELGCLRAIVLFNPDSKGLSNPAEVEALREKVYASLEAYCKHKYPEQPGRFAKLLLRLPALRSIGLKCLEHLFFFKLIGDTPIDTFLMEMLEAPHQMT

Caco-2 monolayers = assay: Bi-directional permeability, CACO-2; type: in vitro ADME; conditions: for Papp B-A / Papp A-B Ratio: Caco-2 efflux ratio
Description: Caco-2 monolayers were grown to confluence on collagen-coated, microporous, polycarbonate membranes in 12-well Costar Transwell plates. Details of the plates and their certification are shown below. The permeability assay buffer was Hank's Balanced Salt Solution containing 10 mM HEPES and 15 mM glucose at a pH of 7.0±0.2. The dosing solution concentration was 10 μM in assay buffer. At each time point, 1 and 2 hours, a 200-μL aliquot was taken from the receiver chamber and replaced with fresh assay buffer. Cells were dosed on the apical side (A-to-B) or basolateral side (B-to-A) and incubated at 37° C. with 5% CO2 and 90% relative humidity. Each determination was performed in duplicate. The important experimental parameters are outlined below. Permeability through a cell-free (blank) membrane was studied to determine non-specific binding and free diffusion of the compound through the device. Lucifer yellow flux was also measured for each monolayer after being subjected to the test compounds to ensure no damage was inflicted to the cell monolayers during the flux period.
All samples were assayed by LC/MS using electrospray ionization. Typical LC/MS conditions are as follows:
dCr/dt is the cumulative concentration in the receiver compartment versus time in M s^−1.
Vr is the volume of the receiver compartment in cm^3.
Vd is the volume of the donor compartment in cm^3.
A is the area of the cell monolayer (1.13 cm^2 for 12-well Transwell).
C0 is the concentration of the dosing solution in M.
Cr^final is the cumulative receiver concentration in M at the end of the incubation period.
Cd^final is the concentration of the donor in M at the end of the incubation period.

Structure (SMILES) | Log(D) Octanol/pH 7.4 [1] | Solubility pH 7.4 [2] | Fold Induction, Z3 Assay, 3.3 uM [3] | Z3 assay Rel Max FI [3] | EC50 [3] [µM] | Papp Blank (Caco-2 monolayers; Caco-2) | Papp, A-to-B Avg (Caco-2 monolayers; Caco-2) | Papp, A-to-B Rep. 1 (Caco-2 monolayers; Caco-2) | Papp, A-to-B Rep. 2 (Caco-2 monolayers; Caco-2) | Papp, B-to-A Avg (Caco-2 monolayers; Caco-2) | Papp, B-to-A Rep. 1 (Caco-2 monolayers; Caco-2) | Papp, B-to-A Rep. 2 (Caco-2 monolayers; Caco-2) | Significant Efflux (Caco-2 monolayers; Caco-2) | Papp B-A / Papp A-B Ratio (Caco-2 monolayers)
CCc1c(OC)cccc1C(=O)NN(C(=O)c1ccccc1[S+](C)[O-])C(C)(C)C (stereo not drawn) [RG-115199] | 2.0 | 0.0064 mg/mL | 349 | 0.734 | 3.47 | 23.0 10^−6 cm/s | 30.6 10^−6 cm/s | 31.1 10^−6 cm/s | 30.2 10^−6 cm/s | 30.9 10^−6 cm/s | 31.0 10^−6 cm/s | 30.9 10^−6 cm/s | No | 1.0
CCc1c(OC)cccc1C(=O)NN(C(=O)c1ccccc1S(=O)(=O)O)C(C)(C)C [RG-115555] | 0.0 | ≧1.0 mg/mL | 1 | 0.006 | > 50 | 35.8 10^−6 cm/s | 0.18 10^−6 cm/s | 0.18 10^−6 cm/s | 0.18 10^−6 cm/s | 1.61 10^−6 cm/s | 1.55 10^−6 cm/s | 1.67 10^−6 cm/s |  | 8.9
